Source: patent US12344587B2, “Synthetic retinoids for use in RAR activation” (UNIVERSITY OF DURHAM, priority 2019, dated 2025)

Columns and labels:
[1] = tested on: rat mixed primary neuronal/glial cultures; experiment: Regulation of Alzheimer's disease related genes (qPCR); type: cell-based; conditions: 10 nM retinoid 24 hours after 1 μg/ml lipopolysaccharide 6 hours
Description: To examine the influence retinoids may have on the expression of genes involved in Alzheimer's disease, the expression of a group of Alzheimer's-related genes in rat mixed primary neuronal/glial cultures was assessed following retinoid treatment.
Approximately 300,000 rat neuronal/glial cells were treated first with 1 μg/ml lipopolysaccharide (Sigma-Aldrich) for 6 hours to induce inflammation. Following the induction of inflammation, cells were treated with 10 nM retinoids for 24 hours. […] Following treatment, RNA was extracted from the treated cells for qPCR analysis.
Total RNA was extracted using a Qiagen RNeasy mini kit (CAT # 74104, Qiagen) according to the manufacturer's protocol. Briefly, cell and brain tissue samples were homogenized in 350 μl and 1200 μl of RLT buffer mixed with β-ME (1 ml buffer: 10 μl β-ME ratio) respectively. Then, samples were centrifuged for 3 min at 13,000 rpm. The supernatant was first mixed with 70% ethanol at a 1:1 volume ratio (CAT # E7023, Sigma-Aldrich) before transferring it to a spin column placed in a collection tube. The samples were centrifuged for 1 min at 10,000 rpm to bind RNA to the membrane of the spin column.
For the on-column DNase digestion, the samples in the columns were washed with 350 μl RW1 buffer and centrifuged at 10,000 rpm for 1 min. Then, 80 μl of the DNase mixture (10 μl DNase enzyme with 70 μl RDD buffer; CAT # 79254, Qiagen) was added above each sample. Samples were incubated at room temperature for 15 min before adding 350 μl RW1 buffer. Samples were centrifuged at 10,000 rpm for 1 min.
Afterwards, 500 μl of RPE buffer (mixed with 100% ethanol at 1:4 ratio) was added above the samples. Samples were centrifuged for 1 min at 10,000 rpm (the step was repeated 2 times). The spin columns were centrifuged again at 13,000 rpm for 1 min to dry the membranes. The spin columns were removed from the collection tubes and placed inside another 1.5 ml RNase free collection tubes. The RNA was eluted by adding 30 μl of RNase free water directly to the spin column membrane. The samples were incubated 5 min at room temperature before spinning them for 1 min at 10,000 rpm.
RNA concentration was measured using a NanoDrop™ 2000c spectrophotometer (Thermo Fisher Scientific). The instrument was calibrated using the RNase free water used to elute the RNA as a blank and 2 μl was used of each RNA sample. RNA samples were stored in a −70° C. freezer to minimize RNA degradation.
qPCR reactions were performed using PerfeCTa SYBR Green SuperMix (CAT # 733-1246, VWR). 10 μl of reaction mix was added to each well of a 384-well plate (CAT # 04729749001, Roche) in triplicate. Each reaction contained 2 μl of 4 times diluted cDNA template, 5 μl 2×SYBR green mix and 250 nM primers.
Primers were designed using Primer-BLAST with melting temperatures of about 60° C. Before using them in qPCR, the primers were checked for specificity by PCR and the PCR products were sent for sequencing.
Standard curves (made using 5-fold dilutions of the stock cDNA) and blank controls were run for all sets of primers tested in qPCR. The plates were then sealed and centrifuged briefly to ensure all the reagents were at the base of the wells. The plates were run on a Roche LightCycler 480 that was programmed to hold the plate at 95° C. for 5 min. The qPCR then ran for 45 cycles of 95° C. for 15 seconds (s), 60° C. for 15 s and 72° C. for 15 s. Afterwards, the melting curve was obtained by running the plate at 95° C. for 5 s followed by 58° C. for 1 min.
Results were analysed using the delta delta CT method within the LightCycler 480 1.5 software. The expression of genes of interest was normalized to the appropriate reference gene according to each experiment.

MDR1 = experiment: MDCK-MDR1 permeability assay; type: in vitro ADME; conditions: dog, pH 7.4, 60 min
Description: Thus, this assay is a valuable in vitro surrogate for blood-brain permeability and CNS exposure
MDCK-MDR1 cells obtained from the NIH (Rockville, MD, USA) are used between passage numbers 6-30. Cells are seeded onto Millipore Multiscreen Transwell plates at 3.4×10^5 cells/cm^2. The cells are cultured in DMEM and media is changed on day 3. On day 4 the permeability study is performed. Cell culture and assay incubations are carried out at 37° C. in an atmosphere of 5% CO2 with a relative humidity of 95%. On the day of the assay, the monolayers are prepared by rinsing both apical and basolateral surfaces twice with Hanks Balanced Salt Solution (HBSS) at the desired pH warmed to 37° C. […] Test compound permeability is assessed in duplicate. […] Test and control compounds are quantified by LC-MS/MS cassette analysis using a 7-point calibration with appropriate dilution of the samples. The starting concentration (C0) is determined from the dosing solution and the experimental recovery calculated from C0 and both apical and basolateral compartment concentrations.
The permeability coefficient (Papp) for each compound is calculated from the following equation: […]
Where dQ/dt is the rate of permeation of the drug across the cells, C0 is the donor compartment concentration at time zero and A is the area of the cell monolayer. […] An efflux ratio (ER) is calculated from mean A-B and B-A data.

Row | Papp at 60 min, 10 μM (MDR1) [×10⁻⁶ cm/s] | efflux ratio at 60 min, 10 μM (MDR1; from mean A-B and B-A data, read-out: ER (efflux ratio)) | Structure (SMILES) | Expression of inflammation genes (Ccl5, TNFα and Nos2) [1] | Expression of neuroprotection genes (Abca1, Abcg1, Igf1 and Igf2) [1] | Expression of non-amyloidogenic pathway genes (Nep, Ide and Adam10) [1]
1 | – | – | CC1(C)CCC(C)(C)c2cc(C#Cc3ccc(C(=O)O)nc3)ccc21 [DC528, 5-[2-(5,5,8,8-tetramethyl-5,6,7,8-tetrahydronaphthalen-2-yl)ethynyl]pyridine-2-carboxylic acid] | downregulated | upregulated | upregulated
2 | – | – | CC1(C)CCC(C)(C)c2cc(C#Cc3ccc(C(=O)O)cc3F)ccc21 [DC526, 3-Fluoro-4-[2-(5,5,8,8-tetramethyl-5,6,7,8-tetrahydronaphthalen-2-yl)ethynyl]benzoic acid] | downregulated | upregulated | upregulated
3 | 34.9 | 0.6 | CC1(C)CCC(C)(C)c2nc(C#Cc3ccc(C(=O)O)cc3)cnc21 [DC645, 4-[2-(5,5,8,8-Tetramethyl-5,6,7,8-tetrahydroquinoxalin-2-yl)ethynyl]benzoic acid] | downregulated | upregulated | upregulated
